Test results taken from patent publication US6313114A, “3,4-Dihydro-2H-benzo[1,4]oxazinyl-methyl)-[3-(1H-indol-3yl)-alkyl]- amines” (American Home Products Corp, priority 1999, dated 2001).
pKi: −log10 of the molar value.

Key:
serotonin transporter = target: T1, serotonin transporter (Rattus norvegicus, UniProt P31652); test: 3H-paroxetine binding to serotonin transporter in rat frontal cortical membranes; design: species or system male Sprague-Dawley rats
T1 construct: frontal cortical membranes prepared from male Sprague-Dawley rats; from tissue; host or cells: frontal cortical membranes of male Sprague-Dawley rats
Experimental: Briefly, frontal cortical membranes prepared from male Sprague-Dawley rats were incubated with ^3 H-paroxetine (0.1 nM) for 60 min at 25° C. All tubes also contained either vehicle, test compound (one to eight concentrations), or a saturating concentration of fluoxetine (10 μM) to define specific binding. All reactions were terminated by the addition of ice cold Tris buffer followed by rapid filtration using a Tom Tech filtration device to separate bound from free ^3 H-paroxetine.

human 5-HT1A receptor = target: T2, human 5-HT1A receptor (Homo sapiens, UniProt P08908); test: [3H]8-OH-DPAT competition binding to cloned human 5-HT1A receptor (CHO cell membranes); conditions: [3H]8-OH-DPAT 1.5 nM; CHO cells expressing human 5-HT1A
T2 construct: expressed in transfected cells
T2 sequence (P08908 1-422): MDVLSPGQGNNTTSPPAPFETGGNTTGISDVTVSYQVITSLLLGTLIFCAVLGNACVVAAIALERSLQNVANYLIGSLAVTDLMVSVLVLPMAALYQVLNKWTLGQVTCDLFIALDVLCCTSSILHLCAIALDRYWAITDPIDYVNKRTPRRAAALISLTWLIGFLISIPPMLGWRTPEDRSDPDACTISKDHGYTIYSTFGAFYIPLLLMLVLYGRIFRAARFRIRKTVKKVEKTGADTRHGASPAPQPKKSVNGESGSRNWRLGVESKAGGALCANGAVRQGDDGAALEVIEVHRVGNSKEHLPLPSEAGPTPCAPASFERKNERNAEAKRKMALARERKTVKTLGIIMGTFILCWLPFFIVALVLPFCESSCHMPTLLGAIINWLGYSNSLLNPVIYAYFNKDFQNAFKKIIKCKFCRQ
Experimental: A stable Chinese hamster ovary cell line expressing the human 5-HT1A receptor subtype (5H-HT1A .CHO cells) was employed throughout this procedure. Cells were maintained in DMEM supplemented with 10% fetal calf serum, non-essential amino acids and penicillin/ streptomycin.
Cells were grown to 95-100% confluency as a monolayer before membranes were harvested for binding studies. Cells were gently scraped from the culture plates, transferred to centrifuge tubes, and washed twice by centrifugation (at 2000 rpm for 10 min., 4° C.) in buffer (50 mM Tris; pH 7.5). The resulting pellets were aliquoted and stored at -80° C. until needed. On the day of assay, the cells were thawed on ice, and resuspended in buffer. Studies were conducted using [^3 H]8-OH-DPAT as the radioligand. The binding assay was performed in 96 well microtiter plates in a final total volume of 250 μL of buffer. […] Non-specific binding was determined in the presence of 10 μM 5HT. Saturation analysis was conducted by using [^3 H]8-OH-DPAT at concentrations ranging from 0.3-30 nM. Following a 30 minute incubation at room temperature, the reaction was terminated by the addition of ice cold buffer and rapid filtration using a M-96 Brandel Cell Harvester through a GF/B filter presoaked for 30 minutes in 0.5% polyethyleneimine.

T1 sequence (P31652 whole entry): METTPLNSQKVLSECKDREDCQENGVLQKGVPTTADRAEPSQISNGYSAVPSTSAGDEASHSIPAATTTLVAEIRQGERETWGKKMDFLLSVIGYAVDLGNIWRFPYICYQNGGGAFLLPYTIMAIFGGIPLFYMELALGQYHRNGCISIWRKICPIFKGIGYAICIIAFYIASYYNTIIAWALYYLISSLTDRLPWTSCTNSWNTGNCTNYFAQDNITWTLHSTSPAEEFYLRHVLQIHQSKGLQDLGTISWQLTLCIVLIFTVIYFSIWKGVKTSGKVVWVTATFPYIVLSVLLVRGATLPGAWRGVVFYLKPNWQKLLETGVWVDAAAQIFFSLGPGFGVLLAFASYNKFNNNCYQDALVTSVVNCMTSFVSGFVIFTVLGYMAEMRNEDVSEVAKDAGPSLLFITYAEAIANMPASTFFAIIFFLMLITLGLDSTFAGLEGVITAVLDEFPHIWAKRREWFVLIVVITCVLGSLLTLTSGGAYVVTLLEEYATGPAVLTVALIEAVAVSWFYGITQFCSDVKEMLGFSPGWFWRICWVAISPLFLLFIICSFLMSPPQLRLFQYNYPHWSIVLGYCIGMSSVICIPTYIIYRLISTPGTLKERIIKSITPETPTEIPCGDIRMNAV

With `c1ccc(CN2CC(CNCCCCc3c[nH]c4ccccc34)Oc3ccccc32)cc1` (centres unmarked) [Example 4, (4-Benzyl-3,4-dihydro-2H-benzo[1,4]oxazin-2ylmethyl)-[3-(1H-indo-3-yl)-butyl]-amine] the pKi (serotonin transporter) was 7.09 and the pKi (human 5-HT1A receptor) was 7.12.
